US7700584B2 (Hangzhou Minsheng Pharmaceuticals Co., Ltd., priority 2004, dated 2010)
≈ marks a conversion by molar mass, not a printed value. Read-outs that look alike come from different tables or passages of the source.

Key:
[1] = tested on: Hela human cervical carcinoma; assay: In vitro anti-tumor IC50 (MTT), Hela; assay type: cell-based; conditions: Homo sapiens, HeLa; Table 4; read-out: IC50 (ug/ml) against tumor cell lines, Hela
[2] = biological target: T1, HIV-1 reverse transcriptase (Human immunodeficiency virus type 1 group M subtype B, UniProt P04585); assay: Screening for the in vitro activity against the HIV-1 reverse transcriptase; assay type: biochemical
T1 construct: purchased
In short: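 Each sample, taken from DMSO through five 5-fold water dilutions, was incubated with recombinant RT and Biotin-dUTP substrate. Enzyme activity was quantified as biotin label incorporated into the plate-bound template, using streptavidin-HRP with absorbance at 450 nm.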

[3] = tested on: U-937 human histocytic lymphoma; assay: In vitro anti-tumor IC50 (MTT), U-937; assay type: cell-based; conditions: Homo sapiens, U-937; Table 4; read-out: IC50 (ug/ml) against tumor cell lines, U-937
[4] = tested on: LLC mouse Lewis lung carcinoma; assay: In vitro inhibition rate to tumor cells (MTT), LLC; assay type: cell-based; conditions: 50 μg/ml
[5] = biological target: T2, HIV-1 proteinase (HIV-1 PR) (Human immunodeficiency virus type 1 group M subtype B, UniProt P04585); assay: Screening for in vitro activity against HIV-1 proteinase; assay type: biochemical
T2 construct: HIV-1 proteinase digests the fluorescent-labeled substrate; purchased
In short: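 Inhibition was scored from product fluorescence after the enzyme was added to buffer holding the labeled substrate and the test sample. Samples were five serial 5× dilutions in water from a DMSO solution. Indinavir served as the reference control; the enzyme was recombinant HIV-1 PR.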

[6] = tested on: U-937 human histocytic lymphoma; assay: In vitro inhibition rate to tumor cells (MTT), U-937; assay type: cell-based; conditions: for inhibition at 50 µg/mL: Homo sapiens
[7] = tested on: MCF-7 human mammary adenocarcinoma; assay: In vitro inhibition rate to tumor cells (MTT), MCF-7; assay type: cell-based; conditions: for inhibition at 50 µg/mL: Homo sapiens
[8] = tested on: HL-60 human promyelocytic leukemia; assay: In vitro anti-tumor IC50 (MTT), HL-60; assay type: cell-based; conditions: Homo sapiens, HL-60; Table 4; read-out: IC50 (ug/ml) against tumor cell lines, HL-60
[9] = tested on: MCF-7 human mammary adenocarcinoma; assay: In vitro anti-tumor IC50 (MTT), MCF-7; assay type: cell-based; conditions: Homo sapiens, MCF7; Table 4; read-out: IC50 (ug/ml) against tumor cell lines, MCF
[10] = tested on: A-549 human lung adenocarcinoma; assay: In vitro inhibition rate to tumor cells (MTT), A-549; assay type: cell-based; conditions: for inhibition at 50 µg/mL: Homo sapiens
[11] = tested on: 293 cells; assay: Cell status of 293 cells treated with sample alone (herpes virus screening); conditions: 200 μg/ml, 24 hrs
[12] = tested on: SMMC-7721 human hepatic carcinoma; assay: In vitro inhibition rate to tumor cells (MTT), SMMC-7721; assay type: cell-based; conditions: Homo sapiens
[13] = tested on: Bel-7402 human hepatic carcinoma; assay: In vitro inhibition rate to tumor cells (MTT), Bel-7402; assay type: cell-based; conditions: for inhibition at 50 µg/mL: Homo sapiens
[14] = tested on: HL-60 human promyelocytic leukemia; assay: In vitro inhibition rate to tumor cells (MTT), HL-60; assay type: cell-based; conditions: for inhibition at 50 µg/mL: Homo sapiens
[15] = U-937, 50 μg/ml, Table 2 (repeated screening), read-out: inhibition rate, Results (%) U-937
[16] = MCF7, 50 μg/ml, Table 2 (repeated screening), read-out: inhibition rate, Results (%) MCF-7
[17] = A549, 50 μg/ml, Table 2 (repeated screening), read-out: inhibition rate, Results (%) A-549
[18] = SMMC-7721, 50 μg/ml, Table 2 (repeated screening), read-out: inhibition rate, Results (%) SMMC-7721
[19] = Bel-7402, 50 μg/ml, Table 2 (repeated screening), read-out: inhibition rate, Results (%) Bel-7402
[20] = HL-60, 50 μg/ml, Table 2 (repeated screening), read-out: inhibition rate, Results (%) HL-60
[21] = 50 μg/ml, Table 3 (repeated screening)

CC(C)C1CC23OC1(O)CC(=CN1CCNCC1)C2CCC3C (stereo not shown) [Compound 7, Curcumol piperazine]
IC50 [1]: 0.6 µg/mL (≈ 1.87 µM)
IC50 ([2]; IC50, initial concentration 200 μg/ml): > 624 µM
IC50 [3]: 0.76 µg/mL (≈ 2.37 µM)
inhibition rate, Results (%) LLC ([4]; Table 1): 85.42%
inhibition rate, Results (%) LLC ([4]; Table 2 (repeated screening)): −2.99%
inhibition rate, Results (%) LLC ([4]; Table 3 (repeated screening)): −3.66%
inhibition at 0.08 µg/mL ([5]; 0.08 μg/ml, read-out: Inhibition rate): 14.1%
Inhibition rate ([5]; 0.40 μg/ml): 6.32
inhibition at 2 µg/mL ([5]; 2.0 μg/ml, read-out: Inhibition rate): 4.31%
Inhibition rate ([5]; 10 μg/ml): 3.51
IC50 ([5]; IC50, five 5× serial dilutions from 50 μg/ml): > 156 µM
inhibition at 50 µg/mL ([5]; read-out: Inhibition rate, 50 μg/ml): 1.43%
inhibition at 50 µg/mL ([6]; U-937, 50 μg/ml, Table 1, read-out: inhibition rate, Results (%) U-937): 93%
inhibition at 50 µg/mL [6, 15]: 90%
inhibition at 50 µg/mL ([6]; U-937, 50 μg/ml, Table 3 (repeated screening), read-out: inhibition rate, Results (%) U-937): 91.2%
inhibition at 50 µg/mL ([7]; MCF7, 50 μg/ml, Table 1, read-out: inhibition rate, Results (%) MCF-7): 88.3%
inhibition at 50 µg/mL [7, 16]: 85%
inhibition at 50 µg/mL ([7]; MCF7, 50 μg/ml, Table 3 (repeated screening), read-out: inhibition rate, Results (%) MCF-7): 84.1%
IC50 [8]: 1.61 µg/mL (≈ 5.02 µM)
IC50 [9]: 3.2 µg/mL (≈ 9.99 µM)
inhibition at 50 µg/mL ([10]; A549, 50 μg/ml, Table 1, read-out: inhibition rate, Results (%) A-549): 65.3%
inhibition at 50 µg/mL [10, 17]: 67.2%
inhibition at 50 µg/mL ([10]; A549, 50 μg/ml, Table 3 (repeated screening), read-out: inhibition rate, Results (%) A-549): 65.3%
Cytopathy and cell status, Sample [11]: Good
inhibition at 50 µg/mL ([12]; SMMC-7721, 50 μg/ml, Table 1, read-out: inhibition rate, Results (%) SMMC-7721): 3.34%
inhibition at 50 µg/mL [12, 18]: 1.23%
inhibition at 50 µg/mL ([13]; Bel-7402, 50 μg/ml, Table 1, read-out: inhibition rate, Results (%) Bel-7402): 55.4%
inhibition at 50 µg/mL [13, 19]: 60.2%
inhibition at 50 µg/mL ([13]; Bel-7402, 50 μg/ml, Table 3 (repeated screening), read-out: inhibition rate, Results (%) Bel-7402): 65.2%
inhibition at 50 µg/mL ([14]; HL-60, 50 μg/ml, Table 1, read-out: inhibition rate, Results (%) HL-60): 90.6%
inhibition at 50 µg/mL [14, 20]: 91%
inhibition at 50 µg/mL ([14]; HL-60, 50 μg/ml, Table 3 (repeated screening), read-out: inhibition rate, Results (%) HL-60): 90.2%

CC(C)C1CC23OC1(O)C/C(=C\Nc1ccc(O)cc1)C2CCC3C (stereo not shown) [Compound 5, Curcumol p-hydroxy aniline]
IC50 [1]: 0.32 µg/mL (≈ 0.932 µM)
IC50 ([2]; initial concentration 200 μg/ml, read-out: IC50): > 582 µM
IC50 [3]: 0.42 µg/mL (≈ 1.22 µM)
inhibition rate, Results (%) LLC ([4]; Table 1): 3.21%
inhibition rate, Results (%) LLC ([4]; Table 3 (repeated screening)): 86.54%
inhibition at 50 µg/mL ([4]; Mus musculus, Lewis lung carcinoma, Table 2 (repeated screening)): 85.1%
Inhibition rate ([5]; 0.08 μg/ml): 4.38
Inhibition rate ([5]; 0.40 μg/ml): 9.00
Inhibition rate ([5]; 2.0 μg/ml): 10.30
inhibition at 10 µg/mL ([5]; 10 μg/ml, read-out: Inhibition rate): 11.2%
Inhibition rate ([5]; 50 μg/ml): 1.01
IC50 ([5]; five 5× serial dilutions from 50 μg/ml, read-out: IC50): > 146 µM
inhibition rate, Results (%) U-937 [6, 21]: 91.03%
inhibition at 50 µg/mL [6, 15]: 95.6%
inhibition at 50 µg/mL ([6]; U-937, read-out: inhibition rate, Results (%) U-937, 50 μg/ml, Table 1): 94%
inhibition rate, Results (%) MCF-7 [7, 21]: 95.53%
inhibition at 50 µg/mL [7, 16]: 91%
inhibition at 50 µg/mL ([7]; MCF7, read-out: inhibition rate, Results (%) MCF-7, 50 μg/ml, Table 1): 90.3%
IC50 [8]: 0.4 µg/mL (≈ 1.16 µM)
IC50 [9]: 1 µg/mL (≈ 2.91 µM)
inhibition rate, Results (%) A-549 [10, 21]: 91.23%
inhibition at 50 µg/mL [10, 17]: 90%
inhibition at 50 µg/mL ([10]; A549, read-out: inhibition rate, Results (%) A-549, 50 μg/ml, Table 1): 90.3%
Cytopathy and cell status, Sample [11]: Good
inhibition at 50 µg/mL [12, 18]: 86.9%
inhibition at 50 µg/mL ([12]; SMMC-7721, read-out: inhibition rate, Results (%) SMMC-7721, 50 μg/ml, Table 1): 85%
inhibition rate, Results (%) Bel-7402 [13, 21]: 78.97%
inhibition at 50 µg/mL [13, 19]: 81.5%
inhibition at 50 µg/mL ([13]; Bel-7402, read-out: inhibition rate, Results (%) Bel-7402, 50 μg/ml, Table 1): 80.2%
inhibition rate, Results (%) HL-60 [14, 21]: 95.14%
inhibition at 50 µg/mL [14, 20]: 90.9%
inhibition at 50 µg/mL ([14]; HL-60, read-out: inhibition rate, Results (%) HL-60, 50 μg/ml, Table 1): 91.3%
